Structures are written as SMILES. Where two headings read alike, the source gives them in different places.

Experiment [1] concerns velvetleaf. The experiment is described as follows: Example 1: pot test, foliar treatment, visually observed growth inhibition of velvetleaf. The experiment is classed as in vivo, Abutilon theophrasti MEDIC. The source says:
(§1) When the herbicidal activity in a case where two active ingredients are combined, is larger than the simple sum of the respective herbicidal activities of the two active ingredients (the expected activity), it is called a synergistic effect. The activity expected by the combination of two active ingredients can be calculated as follows (Colby S. R., “Weed”, vol. 15, p. 20-22, 1967). E=α+β−(α×β+100) where
(§2) α: growth inhibition rate when treated with x (g/ha) of herbicide X,
(§3) β: growth inhibition rate when treated with y (g/ha) of herbicide Y,
(§4) E: growth inhibition rate expected when treated with x (g/ha) of herbicide X and y (g/ha) of herbicide Y.
(§5) That is, when the actual growth inhibition rate (measured value) is larger than the growth inhibition rate by the above calculation (calculated value), the activity by the combination can be regarded as showing a synergistic effect.
(§6) Upland field soil was put into a 1/1,000,000 hectare pot, and seeds of various plants were sown. When the respective plants reached predetermined leaf stage, herbicidal compositions in predetermined amounts were diluted with water in an amount corresponding to 300 L/ha and applied for foliar treatment by a small sprayer.
(§7) Further, in accordance with the above Colby's formula, the growth inhibition rate (calculated value) was calculated. In Tables, with respect to the compound A, Compound Nos. in Table 1 or 3 are described, and with respect to other herbicidal compounds, common names are described.

Experiment [2] relates to crabgrass. The experiment is described as follows: Example 1: pot test, foliar treatment, visually observed growth inhibition of crabgrass. In kind it is in vivo.
Source text: as §1, §2, §3, §4, §5, §6, §7

[3] abbreviates: Digitaria sanguinalis, foliar, 3.0 to 4.3 leaf stage, 21st day after application, read-out: Growth inhibition rate (%) of crabgrass, Measured value.
The mark [4] stands for this setting: Digitaria sanguinalis, foliar, 3.0 to 4.3 leaf stage, 21st day after application, 15 g/ha, read-out: Growth inhibition rate (%) of crabgrass, Measured value.
Where [5] appears, read: Digitaria sanguinalis, foliar, read-out: Growth inhibition rate (%) of crabgrass, Measured value.

What is called inhibition is the drop in the measured response relative to a control, in per cent. As to `CCSC(=O)Oc1c(C(=O)c2ccc(S(C)(=O)=O)c(OCCOC)c2C)cnn1C` [No. 55, 5-(ethylthio)carbonyloxy-1-methylpyrazol-4-yl 3-(2-methoxyethoxy)-2-methyl-4-(methylsulfonyl)phenyl ketone], the “Growth inhibition rate (%) of velvetleaf, Measured value” in experiment [1] (3.0 to 3.5 leaf stage, 21st day after application, 15 g/ha) worked out at 89%. Further, the inhibition at 7 g/ha in experiment [1] (Abutilon theophrasti, foliar, 2.0 to 2.5 leaf stage, 21st day after application, read-out: Growth inhibition rate (%) of velvetleaf, Measured value) turned out to be 65%; in experiment [1] (Abutilon theophrasti, foliar, 2.0 to 2.8 leaf stage, 21st day after application, read-out: Growth inhibition rate (%) of velvetleaf, Measured value), 70%; in experiment [2] (setting [3]), 83%; in experiment [2] (Digitaria sanguinalis, foliar, 3.2 to 4.2 leaf stage, 21st day after application, read-out: Growth inhibition rate (%) of crabgrass, Measured value), 80%; in experiment [2] (Digitaria sanguinalis, foliar, 3.5 to 4.0 leaf stage, 21st day after application, read-out: Growth inhibition rate (%) of crabgrass, Measured value), 95%. The inhibition at 15 g/ha in experiment [1] (Abutilon theophrasti, foliar, 2.0 to 2.8 leaf stage, 21st day after application, 15 g/ha, read-out: Growth inhibition rate (%) of velvetleaf, Measured value) was 90%; in experiment [1] (Abutilon theophrasti, foliar, 3.0 to 3.5 leaf stage, 21st day after application, 15 g/ha, read-out: Growth inhibition rate (%) of velvetleaf, Measured value), 75%; in experiment [2] (setting [4]), 95%; in experiment [2] (Digitaria sanguinalis, foliar, 3.2 to 4.2 leaf stage, 21st day after application, 15 g/ha, read-out: Growth inhibition rate (%) of crabgrass, Measured value) it was 98%; in experiment [2] (Digitaria sanguinalis, foliar, 4.0 to 4.5 leaf stage, 21st day after application, 15 g/ha, read-out: Growth inhibition rate (%) of crabgrass, Measured value), 73%. Also, the “Growth inhibition rate (%) of crabgrass, Measured value” in experiment [2] (4.0 to 4.5 leaf stage, 21st day after application, 15 g/ha) was found to be 85%.

For `CCn1ncc(C(=O)c2ccc(S(C)(=O)=O)c(OCCOC)c2C)c1OC(=O)SC(C)C` [No. 208], the “Growth inhibition rate (%) of velvetleaf, Measured value” in experiment [1] (3.2 to 4.1 leaf stage, 21st day after application, 7.75 g/ha) stood at 73%; in experiment [1] (3.2 to 4.1 leaf stage, 21st day after application, 15.5 g/ha), 73%. Also, the “Growth inhibition rate (%) of crabgrass, Measured value” amounted to 83% in experiment [2] (2.7 to 3.6 leaf stage, 21st day after application, 7.75 g/ha) and 83% in experiment [2] (2.7 to 3.6 leaf stage, 21st day after application, 15.5 g/ha).

In the case of `CCC(CC)Nc1c([N+](=O)[O-])cc(C)c(C)c1[N+](=O)[O-]` [Pendimethalin], the inhibition at 200 g/ha in experiment [1] (Abutilon theophrasti, foliar, 3.5 to 4.0 leaf stage, 22nd day after application, 200 g/ha, read-out: Growth inhibition rate (%) of velvetleaf, Measured value) worked out at 45%. The inhibition at 100 g/ha in experiment [2] (Digitaria sanguinalis, foliar, 3.5 to 5.0 leaf stage, 22nd day after application, 100 g/ha, read-out: Growth inhibition rate (%) of crabgrass, Measured value) stood at 30%.

With `CCOCCN(C(=O)CCl)C(=C(C)C)c1ccccc1` [Pethoxamid], the “Growth inhibition rate (%) of velvetleaf, Measured value” in experiment [1] (3.5 to 4.0 leaf stage, 14th day after application, 200 g/ha) is 60%. In experiment [2] (3.5 to 5.0 leaf stage, 22nd day after application, 100 g/ha), the “Growth inhibition rate (%) of crabgrass, Measured value” is given as 0%.

On to `COc1nc(C)nc(NC(=O)NS(=O)(=O)c2ccccc2CCC(F)(F)F)n1` [Prosulfuron], for which the inhibition at 30 g/ha is 95% in experiment [1] (Abutilon theophrasti, foliar, 3.0 to 4.0 leaf stage, 21st day after application, 30 g/ha, read-out: Growth inhibition rate (%) of velvetleaf, Measured value); 0% in experiment [2] (setting [3]); 10% in experiment [2] (Digitaria sanguinalis, foliar, 3.2 to 4.1 leaf stage, 14th day after application, read-out: Growth inhibition rate (%) of crabgrass, Measured value). Further, the inhibition at 15 g/ha was 0% in experiment [2] (setting [4]); 0% in experiment [2] (Digitaria sanguinalis, foliar, 3.2 to 4.1 leaf stage, 14th day after application, 15 g/ha, read-out: Growth inhibition rate (%) of crabgrass, Measured value); 0% in experiment [2] (Digitaria sanguinalis, foliar, 3.2 to 4.1 leaf stage, 21st day after application, 15 g/ha, read-out: Growth inhibition rate (%) of crabgrass, Measured value). In addition, the inhibition at 5 g/ha in experiment [2] (Digitaria sanguinalis, foliar, 3.2 to 4.3 leaf stage, 14th day after application, 5 g/ha, read-out: Growth inhibition rate (%) of crabgrass, Measured value) is 0%. Further, in experiment [2] (Digitaria sanguinalis, foliar, 3.2 to 4.3 leaf stage, 14th day after application, 10 g/ha, read-out: Growth inhibition rate (%) of crabgrass, Measured value), the inhibition at 10 g/ha was 0%.

For `CCCCCCCCSC(=O)Oc1cc(Cl)nnc1-c1ccccc1` [Pyridate], the inhibition at 200 g/ha in experiment [1] (Abutilon theophrasti, foliar, 3.2 to 4.3 leaf stage, 21st day after application, 200 g/ha, read-out: Growth inhibition rate (%) of velvetleaf, Measured value) was found to be 0%; in experiment [2] (setting [3]) it was 0%; in experiment [2] (Digitaria sanguinalis, foliar, 3.2 to 4.3 leaf stage, 21st day after application, read-out: Growth inhibition rate (%) of crabgrass, Measured value) it was 0%; in experiment [2] (Digitaria sanguinalis, foliar, 4.1 to 5.3 leaf stage, 20th day after application, read-out: Growth inhibition rate (%) of crabgrass, Measured value), 5%. Also, the inhibition at 100 g/ha in experiment [2] (Digitaria sanguinalis, foliar, 3.0 to 4.3 leaf stage, 21st day after application, 100 g/ha, read-out: Growth inhibition rate (%) of crabgrass, Measured value) is 0%.

Turning to `CCc1cccc(C)c1N(C(=O)CCl)[C@@H](C)COC` [S-Metolachlor, S-metolachlor, reference compound], the “Growth inhibition rate (%) of velvetleaf, Measured value” in experiment [1] (2.4 to 3.2 leaf stage, on the 22nd day after application, foliar, active ingredient amount 150 g/ha) stood at 0%; in experiment [1] (2.5 to 3.3 leaf stage, 21st day after application, 150 g/ha) it was 0%; in experiment [1] (2.5 to 3.3 leaf stage, 21st day after application, 300 g/ha) it was 0%; in experiment [1] (3.0 to 3.5 leaf stage, 20th day after application, 150 g/ha), 0%; in experiment [1] (3.0 to 3.5 leaf stage, 21st day after application, 150 g/ha) it was 0%; in experiment [1] (3.0 to 3.5 leaf stage, 21st day after application, 300 g/ha) it was 0%. Besides, the “Growth inhibition rate (%) of velvetleaf, Measured value” in experiment [1] (3.0 to 3.8 leaf stage, 15th day after application, 15 g/ha) is listed as 0%; in experiment [1] (3.2 to 5.0 leaf stage, 14th day after application, 150 g/ha), 0%; in experiment [1] (3.3 to 4.2 leaf stage, 14th day after application, 150 g/ha), 0%; in experiment [1] (3.3 to 4.2 leaf stage, 14th day after application, 300 g/ha), 0%; in experiment [1] (3.5 to 4.3 leaf stage, 21st day after application, 150 g/ha) it was 0%. In addition, the “Growth inhibition rate (%) of crabgrass, Measured value” in experiment [2] (4.0 to 4.5 leaf stage, 21st day after application, 300 g/ha) amounted to 8%; in experiment [2] (4.0 to 5.0 leaf stage, 21st day after application, 150 g/ha), 0%.

Take `CS(=O)(=O)c1ccc(C(=O)C2C(=O)CCCC2=O)c(Cl)c1` [Sulcotrione]: the inhibition at 15 g/ha in experiment [1] (Abutilon theophrasti, foliar, read-out: Growth inhibition rate (%) of velvetleaf, Measured value, 3.2 to 4.3 leaf stage, 21st day after application, 15 g/ha) was 25%. In addition, in experiment [2] (setting [5]), the inhibition at 15 g/ha is 10%, the inhibition at 15.6 g/ha stood at 50% and the inhibition at 31 g/ha was determined as 65%.

Values taken from patent publication US8466088B2, “Herbicidal compositions containing benzoylpyrazole compounds” (Ishihara Sangyo Kaisha, Ltd., priority 2007, dated 2013).
